One experiment has as its system superoxide anion. The experiment in a line: Anti-free-radical test: xanthine/xanthine oxidase, reduction of cytochrome C (550 nm). To be noted: 0.46% (as active substance); for % anti-free radical inhibition: 25° C. The format is biochemical. The method, then:
The determination of the anti-free-radical effect is based on the capacity which the molecule to be studied has to inhibit or reduce the rate of reduction of cytochrome C, when it is added to the reaction medium. The superoxide anion is formed by the action of xanthine oxidase on xanthine. It induces, in the absence of a molecule capable of capturing it, the reduction of cytochrome C. The appearance of reduced cytochrome C is monitored in a spectrophotometer at 550 nm, in the presence (Trial) and in the absence (Control) of anti-free-radical molecules.
The reaction is carried out in a spectrophotometer thermostated at 25° C. and provided with a sample changer. All the kinetics are determined at least three times; the mean and the standard deviation are calculated for the three values obtained. A percentage inhibition of the rate of appearance of the coloured product (corresponding to the quantity of free superoxide anion) is therefore calculated for each active agent tested. The calculation is performed relative to the rate of appearance of the coloured product in the control (without active agent). The percentage inhibition of the appearance of the coloured product by the active agent therefore corresponds to the percentage inhibition of the superoxide anion.

Experiment [1] has as its system normal human keratinocytes. As to the kind of experiment: Cell division: fluorimetric DNA assay in keratinocytes under thermal stress. The format is cell-based. The method, then:
The effect of the active agents on cell division is measured by a fluorimetric assay of the content of DNA in normal human keratinocytes subjected to a high thermal stress (20 minutes at 50° C.). The quantity of DNA present in the cells determines their capacity to divide. The cells are used at 60% confluence. They are incubated for 24 hours in the presence of the active agents. Cell division is determined by assaying the quantity of DNA present per well.
Four samples A, B, C and D, of a culture normal human keratinocytes, are subjected to the following respective treatments:
Sample A: cells not treated and left at room temperature.
Sample B: cells not treated and heated at 50° C. for 20 minutes.
Sample D: cells left incubated for 24 hours with panthenol (concentration: 12.5×10^−6% by weight of active substance) and heated at 50° C. for 20 minutes.
The DNA in each of the samples is then assayed.

For the compound `CC(C)(CO)C(O)C(=O)NCCCO` (stereo not drawn) [Panthenol, 2,4-dihydroxy-N-(3-hydroxypropyl)-3,3-dimethylbutanamide], in the experiment with superoxide anion, the “Anti-free radical activity (in words)” value is “nonexistent” and the “% anti-free radical inhibition” value was determined as 0%. The “Relative level of cell division (base 100: batch B)” value in experiment [1] (Sample D: 12.5×10^−6% active substance, 24 hours, 50° C. for 20 minutes) was found to be 116.2. In addition, the “Cell division (in μg/well), DNA per well” value in experiment [1] (Sample D: 24 hours with 12.5×10^−6% by weight of active substance, then 50° C. for 20 minutes (heated untreated sample B 3.7)) stood at 4.3 μg/well. For the same compound, the “Effect on cell division under heat (in words)” value in experiment [1] (keratinocytes heated at 50° C. for 20 minutes) is listed as “only compensates for these effects”.
As for `O=C1O[C@H]([C@@H](O)CO)C(O)=C1O` [Vitamin C, ascorbic acid], the “% anti-free radical inhibition” value in the experiment on superoxide anion is 94%.

The values above are taken from patent publication US20020006906A1, “Novel active agent, composition containing it and use in the cosmetic, dermocosmetic, dermopharmaceutical or pharmaceutical field or on woven or nonwoven supports” (SOCIETE D'EXPLOITATION DE PRODUITS POUR LES, priority 2000, published 2002).
